Experiments:
H9 hESCs = experiment: NKX6.1 induction in neurally differentiating H9 hESCs after 24 h treatment (flow cytometry, RT-PCR, day 3); assay type: cell-based, human
Experimental: NKX6.1 is the earliest expressed marker in the motor neuron development cascade in vivo, so we examined its expression in response to Wnt/β-catenin, RA, and SHH signaling during hPSC motor neuron differentiation. H9 hESCs were differentiated in E6 medium for 2 days to initiate neural fate acquisition34 and then treated with combinations of RA, purmorphamine (PM, a small molecule agonist of SHH signaling), and CHIR for 24 h (FIG. 4A). […] Using the H9 ishcat2 line, we observed that CHIR-mediated induction of NKX6.1 was β-catenin-dependent, as the optimal 3 days of shRNA-mediated CTNNB1 knockdown upstream of CHIR treatment was required to maximally reduce NKX6.1 induction to 44±1% (FIG. 4E). The correlation between NKX6.1 knockdown and days of doxycycline treatment was presumably due to the time delay for shRNA synthesis and subsequent gene knockdown in Tet-on systems. […] Exogenously added WNT3A (200 ng/mL) could also induce NKX6.1 expression (60±14%) (FIG. 4G), providing further evidence for the involvement of Wnt/β-catenin signaling in this process. In contrast, simultaneous treatment with CHIR and BMP4 (200 ng/mL), a dorsal patterning factor, reduced the expression of NKX6.1 from 91±1% to 68±2% (FIG. 4H).
hESCs were dissociated with accutase (Thermo Fisher Scientific) and reseeded at 1×10^5 cells/cm2 in E8 medium containing 10 μM ROCK inhibitor (Y27632; R&D Systems) on 6-well polystyrene tissue culture plates coated with 100 μg/mL poly-L-ornithine (PLO; Sigma) and 8 μg/well VTN-NC. The timelines and relevant growth factors/small molecules for all differentiation procedures are described in detail in the Results section and its accompanying figures. Cells were differentiated for various amounts of time in E6 medium containing the same insulin concentration as E8 medium as described above with varying combinations of soluble factors (product information and concentration ranges are found in Table 2). For neuromesodermal induction and HOX propagation, cells were sequentially cultured with FGF8b, CHIR99021 (CHIR), GDF11, and dorsomorphin (DM) as previously described. Briefly, to initiate the neuromesodermal state, cells were changed to E6 medium followed by addition of FGF8b (200 ng/ml) 24 h later. To generate cervical neuromesodermal progenitors, cells were washed with PBS, treated with accutase, and re-seeded in E6 medium containing 200 ng/ml FGF8b, 3 μM CHIR, and 10 μM Y27632 on VTN-NC-coated plates at a density of 1.5×10^5 cells/cm^2 for 48 h. To generate thoracic neuromesodermal progenitors, cells were passaged again after 72 h of CHIR treatment and re-seeded at different densities as described in the text.
Thoracic identity was reached after an additional 24 h. Then, to reach the lumbosacral level, cells were given 30 ng/ml GDF11 and 1 μM DM for an additional 48 h. For neuroectoderm induction and generation of OLIG2^+ progenitors, FGF8b was removed at the designated time points and the concentration of CHIR was increased for 6 h as described in the text, followed by a transition to media containing RA, PM, and SHH for a period of 48 h. For differentiation of the OLIG2^+ progenitors to motor neurons, cells were subcultured by en bloc passage using a cell scraper, reseeded at a 1:200 ratio in Matrigel-coated 8-well chamber slides, and differentiated for 14 days in E6 medium containing 1 μM RA, 100 nM PM, and 100 ng/mL SHH, with media exchange every 3 days (10 μM Y27632 was included during the en bloc passaging step and removed after the first media exchange). For differentiation of lumbar cultures, 1 μM DM was included in all steps. For the myoblast co-culture experiments, OLIG2^+ cultures were en bloc passaged, frozen in E6 medium containing 10% DMSO, shipped to a different location, and thawed 1:10 in 6-well plates under the same conditions as described in FIG. 5. To facilitate neuronal maturation prior to myoblast co-culture, 5 μM DAPT (Tocris) was added from days 8-14 post-thaw. […]

GLI3 = experiment: Western blot of full-length versus truncated repressor GLI3; assay type: cell-based, human; conditions: cultures maintained in 3 and 6 μM CHIR during PM/SHH exposure, day 6
Experimental: To begin, we sequentially differentiated H9 hESCs in E6 media for 1 day, and FGF8b (200 ng/mL) for 1 day, and FGF8b and CHIR (3 μM) for 2 days to generate cervical neuromesoderm (FIGS. 5A-5B). Then, we screened the effects of CHIR, PM, and SHH treatment on NKX6.1^+/PAX6^+/OLIG2^+ motor neuron progenitor induction while transitioning to media containing 1 μM RA (FIGS. 5A-5D). Prior to the addition of RA, NKX6.1 was expressed in the cervical neuromesodermal state at day 4 (80±18% NKX6.1^+; data not shown), likely due to the CHIR-induced Wnt/β-catenin signaling (FIGS. 4A-4H). Transitioning the neuromesodermal progenitors to RA-containing media for 2 days induced HOXB4^+/HOXC6^+/HOXC9^−/HOXD10^−/PAX6^+ cervical neuroectoderm in all conditions (FIGS. 5B-5C), as expected. However, without co-activation of SHH signaling by PM or SHH, NKX6.1 expression was quickly lost by day 6 (97±1% PAX6^+, 17±3% NKX6.1^+) (FIG. 5C). […] To bolster this claim, we also analyzed the abundance of full-length GLI3 versus its truncated repressor form by western blot. […]
Cells were washed with cold PBS, harvested with accutase, and pelleted by centrifugation. […] Immunostained bands were detected using the SuperSignal West Pico Chemiluminescent Substrate kit (Thermo Fisher Scientific). […]

Structure (SMILES): Cc1c[nH]c(-c2cnc(NCCNc3ccc(C#N)cn3)nc2-c2ccc(Cl)cc2Cl)n1 [CHIR, CHIR99021]
- NKX6.1 expression (flow cytometry) (H9 hESCs; CHIR 4 μM without BMP4, day 3): 91±1%
- NKX6.1 expression (flow cytometry) (H9 hESCs; CHIR alone 6 μM, 24 h, analysed day 3): 98±1%
- NKX6.1 and OLIG2 gene expression (RT-PCR) (H9 hESCs; CHIR alone 6 μM, 24 h, day 3): sufficient to induce NKX6.1 but not OLIG2 gene expression
- GLI3 truncated repressor form level (western blot) (GLI3): increased levels of the GLI3 truncated repressor form

— patent publication US12084680B2, “Methods for efficient derivation of human motor neurons from diverse spinal regions” (Wisconsin Alumni Research Foundation, priority 2016, dated 2024)
